Key:
Experiment in all cases: Postemergence herbicidal activity in direct seeded rice
Type in all cases: in vivo
ORYSJ: Oryza sativa = tested on: ORYSJ: Oryza sativa
From the text: (§1) Seeds or nutlets of the desired test plant species were planted in a soil matrix prepared by mixing a loam soil (43 percent silt, 19 percent clay, and 38 percent sand, with a pH of about 8.1 and an organic matter content of about 1.5 percent) and river sand in an 80 to 20 ratio. The soil matrix was contained in plastic pots with a surface area of 139.7 cm^2. When required to ensure good germination and healthy plants, a fungicide treatment and/or other chemical or physical treatment was applied. The plants were grown for 10-17 d in a greenhouse with an approximate 14-h photoperiod which was maintained at about 29° C. during the day and 26° C. during the night. Nutrients and water were added on a regular basis and supplemental lighting was provided with overhead metal halide 1000-Watt lamps as necessary. The plants were employed for testing when they reached the second or third true leaf stage. A weighed amount, determined by the highest rate to be tested, of each test compound was placed in 25 mL glass vials and dissolved in a volume of 97:3 v/v acetone-DMSO to obtain 12× stock solutions. […] The concentrated stock solutions were added to the spray solutions so that the final acetone and DMSO concentrations were 16.2% and 0.5%, respectively. Spray solutions were diluted to the appropriate final concentrations with the addition of 10 mL of an aqueous mixture of 1.5% (v/v) Agri-dex crop oil concentrate. The final spray solutions contained 1.25% (v/v) Agri-dex crop oil concentrate. Compound requirements are based upon a 12 mL application volume at a rate of 187 L/ha. Formulated compounds were applied to the plant material with an overhead Mandel track sprayer equipped with […] nozzles calibrated to deliver 187 L/ha over an application area of 0.503 square meters (m^2) at a spray height of 18 inches ([…]) above average plant canopy height. Control plants were sprayed in the same manner with the solvent blank. The treated plants and control plants were placed in a greenhouse as described above and watered by sub-irrigation to prevent wash-off of the test compounds. After 20-22 days, the condition of the test plants, compared with that of the untreated plants, was determined visually and scored on a scale of 0 to 100 percent where 0 corresponds to no injury and 100 corresponds to complete kill. By applying the well-accepted probit analysis as described by J. Berkson in […], 48, 565 (1953) and by D. Finney in “Probit Analysis” Cambridge University Press (1952), the above data can be used to calculate GR20, GR50, GR80 and GR90 values, which are defined as growth reduction factors that correspond to the effective dose of herbicide required to kill or control 20 percent, 50 percent, 80 percent or 90 percent, respectively, of a target plant.

[1] = tested on: DIGSA: large crabgrass, Digitaria sanguinalis
From the text: as §1

[2] = tested on: LEFCH: Chinese sprangletop, Leptochloa chinensis
From the text: as §1

[3] = tested on: CYPES: yellow nutsedge, Cyperus esculentus
From the text: as §1

[4] = tested on: ECHCG: barnyardgrass, Echinochloa crus-galli
From the text: as §1

[5] = dose for 50 percent control, probit analysis
[6] = dose for 80 percent control, probit analysis
[7] = dose for 90 percent control, probit analysis

## COC(=O)c1nc(-c2ccc3nsnc3c2)c(F)c(N)c1Cl [Compound 11]
ORYSJ: Oryza sativa; 17.5 g ai/ha
  Visual Growth Reduction (%) 21 Days After Application ORYSJ: G (0-29)
ORYSJ: Oryza sativa; 35 g ai/ha
  Visual Growth Reduction (%) 21 Days After Application ORYSJ: G (0-29)
ORYSJ: Oryza sativa; 70 g ai/ha
  Visual Growth Reduction (%) 21 Days After Application ORYSJ: G (0-29)
ORYSJ: Oryza sativa; dose for 20 percent growth reduction, probit analysis
  GR20 ORYSJ: >70 g ai/ha
[1]; 17.5 g ai/ha
  Visual Growth Reduction (%) 21 Days After Application DIGSA: E (45-59)
[1]; 35 g ai/ha
  Visual Growth Reduction (%) 21 Days After Application DIGSA: E (45-59)
[1]; 70 g ai/ha
  Visual Growth Reduction (%) 21 Days After Application DIGSA: D (60-74)
[1]; [5]
  GR50 DIGSA: 11 g ai/ha
[1]; [6]
  GR80 DIGSA: 628 g ai/ha
[1]; [7]
  GR90 DIGSA: 5310 g ai/ha
[2]; 17.5 g ai/ha
  Visual Growth Reduction (%) 21 Days After Application LEFCH: G (0-29)
[2]; 35 g ai/ha
  Visual Growth Reduction (%) 21 Days After Application LEFCH: G (0-29)
[2]; 70 g ai/ha
  Visual Growth Reduction (%) 21 Days After Application LEFCH: G (0-29)
[2]; [5]
  GR50 LEFCH: 114 g ai/ha
[2]; [6]
  GR80 LEFCH: 186 g ai/ha
[2]; [7]
  GR90 LEFCH: 239 g ai/ha
[3]; 17.5 g ai/ha
  Visual Growth Reduction (%) 21 Days After Application CYPES: D (60-74)
[3]; 35 g ai/ha
  Visual Growth Reduction (%) 21 Days After Application CYPES: G (0-29)
[3]; 70 g ai/ha
  Visual Growth Reduction (%) 21 Days After Application CYPES: E (45-59)
[3]; [5]
  GR50 CYPES: >70 g ai/ha
[3]; [6]
  GR80 CYPES: >70 g ai/ha
[3]; [7]
  GR90 CYPES: >70 g ai/ha
[4]; 17.5 g ai/ha
  Visual Growth Reduction (%) 21 Days After Application ECHCG: E (45-59)
[4]; 35 g ai/ha
  Visual Growth Reduction (%) 21 Days After Application ECHCG: C (75-84)
[4]; 70 g ai/ha
  Visual Growth Reduction (%) 21 Days After Application ECHCG: B (85-94)
[4]; [5]
  GR50 ECHCG: 6 g ai/ha
[4]; [6]
  GR80 ECHCG: 37 g ai/ha
[4]; [7]
  GR90 ECHCG: 98 g ai/ha

— patent US9006250B2, “4-amino-6-(heterocyclic)picolinates and 6-amino-2-(heterocyclic)pyrimidine-4-carboxylates and their use as herbicides” (Dow AgroSciences, LLC, priority 2013, dated 2015)
